Read-outs that look alike come from different tables or passages of the source.
System: Wheat and Barley and weed species
Experiment: Post-Emergent Test III: postemergent herbicidal activity in wheat and barley, visual rating after 21 d and probit GR20/GR50/GR80/GR90 (Tables 9-13)
Format: in vivo
Conditions: for pest or weed control at 17.5 g/ha / pest or weed control at 35 g/ha / pest or weed control at 70 g/ha: post-emergence, 504 h
Description: Herbicidal evaluations were made visually on a scale of 0 to 100 where 0 represents no activity and 100 represents complete plant death.
Seeds of the desired test plant species were planted in Sun Gro MetroMix® 306 planting mixture, which typically has a pH of 6.0 to 6.8 and an organic matter content of about 30 percent, in plastic pots with a surface area of 103.2 square centimeters (cm^2). When required to ensure good germination and healthy plants, a fungicide treatment and/or other chemical or physical treatment was applied. The plants were grown for 7-36 days (d) in a greenhouse with an approximate 14 hour (h) photoperiod which was maintained at about 18° C. during the day and 17° C. during the night. Nutrients and water were added on a regular basis and supplemental lighting was provided with overhead metal halide 1000-Watt lamps as necessary. The plants were employed for testing when they reached the second or third true leaf stage.
A weighed amount, determined by the highest rate to be tested, of each test compound was placed in a 25 mL glass vial and was dissolved in 4 mL of a 97:3 v/v mixture of acetone and DMSO to obtain concentrated stock solutions. […] The concentrated stock solutions obtained were diluted with 20 mL of an aqueous mixture containing acetone, water, isopropyl alcohol, DMSO, Agri-Dex crop oil concentrate, and X-77 surfactant in a 48:39:10:1.5:1.5:0.02 v/v ratio to obtain spray solutions containing the highest application rates. Additional application rates were obtained by serial dilution of 12 mL of the high rate solution into a solution containing 2 mL of a 97:3 v/v mixture of acetone and DMSO and 10 mL of an aqueous mixture containing acetone, water, isopropyl alcohol, DMSO, Agri-Dex crop oil concentrate, and X-77 surfactant in a 48:39:10:1.5:1.5:0.02 v/v ratio to obtain ½×, ¼×, ⅛× and 1/16× rates of the high rate. Compound requirements are based upon a 12 mL application volume at a rate of 187 liters per hectare (L/ha). Formulated compounds were applied to the plant material with an overhead Mandel track sprayer equipped with 8002E nozzles calibrated to deliver 187 L/ha over an application area of 0.503 square meters at a spray height of 18 inches (43 cm) above the average plant canopy height. Control plants were sprayed in the same manner with the solvent blank.
The treated plants and control plants were placed in a greenhouse as described above and watered by subirrigation to prevent wash-off of the test compounds. After 21 d, the condition of the test plants as compared with that of the untreated plants was determined visually and scored on a scale of 0 to 100 percent where 0 corresponds to no injury and 100 corresponds to complete kill and are presented as indicated in Table 4.
By applying the well-accepted probit analysis as described by J. Berkson in Journal of the American Statistical Society, 48, 565 (1953) and by D. Finney in “Probit Analysis” Cambridge University Press (1952), herbicidal injury of a specific compound at various rates can be used to calculate GR20, GR50, GR80 and GR90 values, which are defined as growth reduction factors that correspond to the effective dose of herbicide required to provide plant growth reduction (GR) of 20 percent, 50 percent, 80 percent and 90 percent, respectively. Probit analysis was applied to data collected from multiple dose rates of individual compounds utilizing the procedures explained in the following examples. The data for some of the dose rates and analysis of all of the dose rates are captured in the following tables.

COC(=O)c1nc(-c2ccc(Br)c3c2OC(F)(F)O3)c(F)c(N)c1Cl [Compound 78, Methyl 4-amino-6-(7-bromo-2,2-difluorobenzo[d][1,3]dioxol-4-yl)-3-chloro-5-fluoropicolinate]
Visual Growth Reduction (%) 21 Days After Application CIRAR (CIRAR Canada thistle (Cirsium arvense), 17.5 g ai/ha): B (85-94) | Visual Growth Reduction (%) 21 Days After Application CIRAR (CIRAR Canada thistle (Cirsium arvense), 35 g ai/ha): B (85-94) | Visual Growth Reduction (%) 21 Days After Application CIRAR (CIRAR Canada thistle (Cirsium arvense), 70 g ai/ha): B (85-94) | GR50 CIRAR (CIRAR Canada thistle (Cirsium arvense), growth reduction of 50%, probit analysis): 2 g ai/ha | GR80 CIRAR (CIRAR Canada thistle (Cirsium arvense), growth reduction of 80%, probit analysis): 7 g ai/ha | GR90 CIRAR (CIRAR Canada thistle (Cirsium arvense), growth reduction of 90%, probit analysis): 12 g ai/ha | Visual Growth Reduction (%) 21 Days After Application GALAP (GALAP cleavers (Galium aparine), 17.5 g ai/ha): D (60-74) | Visual Growth Reduction (%) 21 Days After Application GALAP (GALAP cleavers (Galium aparine), 35 g ai/ha): D (60-74) | Visual Growth Reduction (%) 21 Days After Application GALAP (GALAP cleavers (Galium aparine), 70 g ai/ha): D (60-74) | GR50 GALAP (GALAP cleavers (Galium aparine), growth reduction of 50%, probit analysis): 1 g ai/ha | GR80 GALAP (GALAP cleavers (Galium aparine), growth reduction of 80%, probit analysis): >140 g ai/ha | GR90 GALAP (GALAP cleavers (Galium aparine), growth reduction of 90%, probit analysis): >140 g ai/ha | GR20 HORVS (HORVS barley, spring (crop), growth reduction of 20%, probit analysis): 13 g ai/ha | pest or weed control at 17.5 g/ha (Hordeum vulgare, HORVS barley, spring (crop), 17.5 g ai/ha, read-out: Visual Growth Reduction (%) 21 Days After Application HORVS): 30 to 44% | pest or weed control at 35 g/ha (Hordeum vulgare, HORVS barley, spring (crop), 35 g ai/ha, read-out: Visual Growth Reduction (%) 21 Days After Application HORVS): 45 to 59% | pest or weed control at 70 g/ha (Hordeum vulgare, HORVS barley, spring (crop), 70 g ai/ha, read-out: Visual Growth Reduction (%) 21 Days After Application HORVS): 60 to 74% | Visual Growth Reduction (%) 21 Days After Application KCHSC (KCHSC kochia (Kochia scoparia), 17.5 g ai/ha): B (85-94) | Visual Growth Reduction (%) 21 Days After Application KCHSC (KCHSC kochia (Kochia scoparia), 35 g ai/ha): A (95-100) | Visual Growth Reduction (%) 21 Days After Application KCHSC (KCHSC kochia (Kochia scoparia), 70 g ai/ha): A (95-100) | GR50 KCHSC (KCHSC kochia (Kochia scoparia), growth reduction of 50%, probit analysis): 2 g ai/ha | GR80 KCHSC (KCHSC kochia (Kochia scoparia), growth reduction of 80%, probit analysis): 9 g ai/ha | GR90 KCHSC (KCHSC kochia (Kochia scoparia), growth reduction of 90%, probit analysis): 19 g ai/ha | Visual Growth Reduction (%) 21 Days After Application LAMPU (LAMPU purple deadnettle (Lamium purpureum), 17.5 g ai/ha): D (60-74) | Visual Growth Reduction (%) 21 Days After Application LAMPU (LAMPU purple deadnettle (Lamium purpureum), 35 g ai/ha): C (75-84) | Visual Growth Reduction (%) 21 Days After Application LAMPU (LAMPU purple deadnettle (Lamium purpureum), 70 g ai/ha): B (85-94) | GR50 LAMPU (LAMPU purple deadnettle (Lamium purpureum), growth reduction of 50%, probit analysis): 2 g ai/ha | GR80 LAMPU (LAMPU purple deadnettle (Lamium purpureum), growth reduction of 80%, probit analysis): 46 g ai/ha | GR90 LAMPU (LAMPU purple deadnettle (Lamium purpureum), growth reduction of 90%, probit analysis): >140 g ai/ha | Visual Growth Reduction (%) 21 Days After Application MATCH (MATCH wild chamomile (Matricaria recutita L.), 17.5 g ai/ha): G (0-29) | Visual Growth Reduction (%) 21 Days After Application MATCH (MATCH wild chamomile (Matricaria recutita L.), 35 g ai/ha): F (30-44) | Visual Growth Reduction (%) 21 Days After Application MATCH (MATCH wild chamomile (Matricaria recutita L.), 70 g ai/ha): E (45-59) | GR50 MATCH (MATCH wild chamomile (Matricaria recutita L.), growth reduction of 50%, probit analysis): 63 g ai/ha | GR80 MATCH (MATCH wild chamomile (Matricaria recutita L.), growth reduction of 80%, probit analysis): >140 g ai/ha | GR90 MATCH (MATCH wild chamomile (Matricaria recutita L.), growth reduction of 90%, probit analysis): >140 g ai/ha | Visual Growth Reduction (%) 21 Days After Application PAPRH (PAPRH common poppy (Papaver rhoeas), 17.5 g ai/ha): F (30-44) | Visual Growth Reduction (%) 21 Days After Application PAPRH (PAPRH common poppy (Papaver rhoeas), 35 g ai/ha): D (60-74) | Visual Growth Reduction (%) 21 Days After Application PAPRH (PAPRH common poppy (Papaver rhoeas), 70 g ai/ha): C (75-84) | GR50 PAPRH (PAPRH common poppy (Papaver rhoeas), growth reduction of 50%, probit analysis): 44 g ai/ha | GR80 PAPRH (PAPRH common poppy (Papaver rhoeas), growth reduction of 80%, probit analysis): >140 g ai/ha | GR90 PAPRH (PAPRH common poppy (Papaver rhoeas), growth reduction of 90%, probit analysis): >140 g ai/ha | Visual Growth Reduction (%) 21 Days After Application SASKR (SASKR Russian thistle (Salsola iberica), 17.5 g ai/ha): B (85-94) | GR50 SASKR (SASKR Russian thistle (Salsola iberica), growth reduction of 50%, probit analysis): 0.4 g ai/ha | GR80 SASKR (SASKR Russian thistle (Salsola iberica), growth reduction of 80%, probit analysis): 9 g ai/ha | GR90 SASKR (SASKR Russian thistle (Salsola iberica), growth reduction of 90%, probit analysis): 42 g ai/ha | Visual Growth Reduction (%) 21 Days After Application SINAR (SINAR wild mustard (Sinapis arvensis), 17.5 g ai/ha): A (95-100) | Visual Growth Reduction (%) 21 Days After Application SINAR (SINAR wild mustard (Sinapis arvensis), 35 g ai/ha): A (95-100) | Visual Growth Reduction (%) 21 Days After Application SINAR (SINAR wild mustard (Sinapis arvensis), 70 g ai/ha): A (95-100) | GR50 SINAR (SINAR wild mustard (Sinapis arvensis), growth reduction of 50%, probit analysis): 1 g ai/ha | GR80 SINAR (SINAR wild mustard (Sinapis arvensis), growth reduction of 80%, probit analysis): 3 g ai/ha | GR90 SINAR (SINAR wild mustard (Sinapis arvensis), growth reduction of 90%, probit analysis): 8 g ai/ha | GR20 TRZAS (TRZAS wheat, spring (crop), growth reduction of 20%, probit analysis): 20 g ai/ha | pest or weed control at 17.5 g/ha (Triticum aestivum, TRZAS wheat, spring (crop), 17.5 g ai/ha, read-out: Visual Growth Reduction (%) 21 Days After Application TRZAS): 0 to 29% | pest or weed control at 35 g/ha (Triticum aestivum, TRZAS wheat, spring (crop), 35 g ai/ha, read-out: Visual Growth Reduction (%) 21 Days After Application TRZAS): 30 to 44% | pest or weed control at 70 g/ha (Triticum aestivum, TRZAS wheat, spring (crop), 70 g ai/ha, read-out: Visual Growth Reduction (%) 21 Days After Application TRZAS): 45 to 59% | Visual Growth Reduction (%) 21 Days After Application VERPE (VERPE bird's-eye speedwell (veronica persica), 17.5 g ai/ha): G (0-29) | Visual Growth Reduction (%) 21 Days After Application VERPE (VERPE bird's-eye speedwell (veronica persica), 35 g ai/ha): D (60-74) | Visual Growth Reduction (%) 21 Days After Application VERPE (VERPE bird's-eye speedwell (veronica persica), 70 g ai/ha): C (75-84) | GR50 VERPE (VERPE bird's-eye speedwell (veronica persica), growth reduction of 50%, probit analysis): 33 g ai/ha | GR80 VERPE (VERPE bird's-eye speedwell (veronica persica), growth reduction of 80%, probit analysis): 77 g ai/ha | GR90 VERPE (VERPE bird's-eye speedwell (veronica persica), growth reduction of 90%, probit analysis): 119 g ai/ha | Visual Growth Reduction (%) 21 Days After Application VIOTR (VIOTR wild pansy (Viola tricolor), 17.5 g ai/ha): F (30-44) | Visual Growth Reduction (%) 21 Days After Application VIOTR (VIOTR wild pansy (Viola tricolor), 35 g ai/ha): F (30-44) | Visual Growth Reduction (%) 21 Days After Application VIOTR (VIOTR wild pansy (Viola tricolor), 70 g ai/ha): D (60-74) | GR50 VIOTR (VIOTR wild pansy (Viola tricolor), growth reduction of 50%, probit analysis): 47 g ai/ha | GR80 VIOTR (VIOTR wild pansy (Viola tricolor), growth reduction of 80%, probit analysis): >140 g ai/ha | GR90 VIOTR (VIOTR wild pansy (Viola tricolor), growth reduction of 90%, probit analysis): >140 g ai/ha
